Data reported in ChEMBL document CHEMBL1201861, “Genomics of Drug Sensitity in Cancer screening data, Wellcome Trust Sanger Institute”.

What was measured:
Test in all cases: cells
Details in all cases: Homo sapiens
NCI-H1838 = type: functional, cell-based;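 also: growth inhibition of NCI-H1838 cells, determined with a cell viability readout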
Description: SANGER: Inhibition of human NCI-H1838 cell growth in a cell viability assay.

ETK-1 = type: functional, cell-based;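 also: growth inhibition of human ETK-1 cells, read out with a cell viability assay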
Description: SANGER: Inhibition of human ETK-1 cell growth in a cell viability assay.

LB831-BLC = type: functional, cell-based;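 also: growth inhibition of LB831-BLC cells, read out with a cell viability assay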
Description: SANGER: Inhibition of human LB831-BLC cell growth in a cell viability assay.

HL-60 = type: functional, cell-based;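 also: growth inhibition of human HL-60 cells, read out with a cell viability assay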
Description: SANGER: Inhibition of human HL-60 cell growth in a cell viability assay.

TK-10 = type: functional, cell-based;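 also: growth inhibition of TK-10 cells, read out in a cell viability assay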
Description: SANGER: Inhibition of human TK10 cell growth in a cell viability assay.

GAK = type: functional, cell-based;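 also: cell growth inhibition read out by a cell viability assay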
Description: SANGER: Inhibition of human GAK cell growth in a cell viability assay.

KARPAS-299 = type: functional, cell-based
Description: SANGER: Inhibition of human KARPAS-299 cell growth in a cell viability assay.

SBC-1 = type: functional, cell-based;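 also: cell viability assay measuring growth inhibition of the SBC-1 cell line, IC50 being the concentration that halves growth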
Description: SANGER: Inhibition of human SBC-1 cell growth in a cell viability assay.

LOX IMVI = type: functional, cell-based
Description: SANGER: Inhibition of human LOXIMVI cell growth in a cell viability assay.

A704 = type: functional, cell-based;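 also: growth inhibition of human A704 cells, read out with a cell viability assay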
Description: SANGER: Inhibition of human A704 cell growth in a cell viability assay.

LAN-6 = type: functional, cell-based;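 also: growth inhibition of LAN-6 cells, determined with a cell viability assay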
Description: SANGER: Inhibition of human LAN-6 cell growth in a cell viability assay.

SHP77 = type: functional, cell-based, SHP-77;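 also: growth inhibition of human SHP-77 cells measured by a cell viability assay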
Description: SANGER: Inhibition of human SHP-77 cell growth in a cell viability assay.

MHH-PREB-1 = type: functional, cell-based;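 also: cell viability assay measuring inhibition of proliferation of human MHH-PREB-1 cells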
Description: SANGER: Inhibition of human MHH-PREB-1 cell growth in a cell viability assay.

no-11 = type: functional, cell-based;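 also: growth inhibition of human NO-11 cells, read out with a cell viability assay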
Description: SANGER: Inhibition of human no-11 cell growth in a cell viability assay.

MN-60 = type: functional, cell-based;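 also: growth inhibition of the MN-60 cell line, determined with a cell viability assay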
Description: SANGER: Inhibition of human MN-60 cell growth in a cell viability assay.

MZ1-PC = type: functional, cell-based;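 also: cell viability assay measuring growth inhibition of human MZ1-PC cells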
Description: SANGER: Inhibition of human MZ1-PC cell growth in a cell viability assay.

DMS-79 = type: functional, cell-based;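 also: growth inhibition measured with a cell viability assay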
Description: SANGER: Inhibition of human DMS-79 cell growth in a cell viability assay.

KG-1 = type: functional, cell-based;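 also: growth inhibition of KG-1 cells, read out by a cell viability assay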
Description: SANGER: Inhibition of human KG-1 cell growth in a cell viability assay.

GOTO = type: functional, cell-based;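 also: growth inhibition of GOTO cells, read out by a cell viability assay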
Description: SANGER: Inhibition of human GOTO cell growth in a cell viability assay.

NCI-H69 = type: functional, cell-based;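 also: growth inhibition of the cell line, read out with a cell viability assay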
Description: SANGER: Inhibition of human NCI-H69 cell growth in a cell viability assay.

KS-1 = type: functional, cell-based;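 also: growth inhibition of KS-1 cells, read out with a cell viability assay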
Description: SANGER: Inhibition of human KS-1 cell growth in a cell viability assay.

NCI-H1355 = type: functional, cell-based;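 also: growth inhibition of human NCI-H1355 cells, read out by a cell viability assay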
Description: SANGER: Inhibition of human NCI-H1355 cell growth in a cell viability assay.

OCUB-M = type: functional, cell-based;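 also: growth inhibition of the cancer cell line, read out through a cell viability assay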
Description: SANGER: Inhibition of human OCUB-M cell growth in a cell viability assay.

SK-PN-DW = type: functional, cell-based;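 also: growth inhibition measured with a viability assay on these cells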
Description: SANGER: Inhibition of human SK-PN-DW cell growth in a cell viability assay.

JAR = type: functional, cell-based;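 also: growth inhibition of human JAR cells determined with a cell viability assay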
Description: SANGER: Inhibition of human JAR cell growth in a cell viability assay.

ES1 = type: functional, cell-based;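 also: growth inhibition of ES1 cells, read out with a cell viability assay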
Description: SANGER: Inhibition of human ES1 cell growth in a cell viability assay.

LU-134-A = type: functional, cell-based
Description: SANGER: Inhibition of human LU-134-A cell growth in a cell viability assay.

GR-ST = type: functional, cell-based
Description: SANGER: Inhibition of human GR-ST cell growth in a cell viability assay.

NTERA-2-cl-D1 = type: functional, cell-based;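 also: inhibition of cell growth, measured with a cell viability assay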
Description: SANGER: Inhibition of human NTERA-S-cl-D1 cell growth in a cell viability assay.

NCI-H1648 = type: functional, cell-based;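 also: cell viability assay measuring inhibition of NCI-H1648 cell growth, from the Sanger screening data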
Description: SANGER: Inhibition of human NCI-H1648 cell growth in a cell viability assay.

NOMO-1 = type: functional, cell-based;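 also: growth inhibition of human NOMO-1 cells measured by a cell viability assay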
Description: SANGER: Inhibition of human NOMO-1 cell growth in a cell viability assay.

KNS-42 = type: functional, cell-based;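 also: growth inhibition of KNS-42 cells, read out with a cell viability assay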
Description: SANGER: Inhibition of human KNS-42 cell growth in a cell viability assay.

JVM-2 = type: functional, cell-based;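 also: growth inhibition of JVM-2 cells determined by a cell viability assay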
Description: SANGER: Inhibition of human JVM-2 cell growth in a cell viability assay.

SCH = type: functional, cell-based;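 also: growth inhibition of human SCH cells, read out in a cell viability assay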
Description: SANGER: Inhibition of human SCH cell growth in a cell viability assay.

KMOE-2 = type: functional, cell-based;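 also: growth inhibition of human KMOE-2 cells, read out with a cell viability assay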
Description: SANGER: Inhibition of human KMOE-2 cell growth in a cell viability assay.

IST-SL1 = type: functional, cell-based;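 also: growth inhibition of human IST-SL1 cells, read out with a cell viability assay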
Description: SANGER: Inhibition of human IST-SL1 cell growth in a cell viability assay.

GB-1 = type: functional, cell-based;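 also: growth of GB-1 cells judged by a viability assay, IC50 marks the concentration inhibiting growth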
Description: SANGER: Inhibition of human GB-1 cell growth in a cell viability assay.

MC116 = type: functional, cell-based;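 also: growth inhibition of MC116 cells, read out with a cell viability assay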
Description: SANGER: Inhibition of human MC116 cell growth in a cell viability assay.

ES5 = type: functional, cell-based;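 also: growth inhibition of human ES5 cells, read out by a cell viability assay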
Description: SANGER: Inhibition of human ES5 cell growth in a cell viability assay.

HCC2218 = type: functional, cell-based;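 also: cell viability assay read-out, with IC50 given as the concentration that inhibits growth of the cell line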
Description: SANGER: Inhibition of human HCC2218 cell growth in a cell viability assay.

SW 954 = type: functional, cell-based;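 also: growth inhibition of SW954 human cancer cells, read out as cell viability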
Description: SANGER: Inhibition of human SW954 cell growth in a cell viability assay.

KLE = type: functional, cell-based;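 also: growth inhibition of human KLE cells, read out with a cell viability assay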
Description: SANGER: Inhibition of human KLE cell growth in a cell viability assay.

EOL1 = type: functional, cell-based;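 also: growth inhibition of EoL-1 cells, read out by a cell viability assay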
Description: SANGER: Inhibition of human EoL-1-cell cell growth in a cell viability assay.

J-RT3-T3-5 = type: functional, cell-based;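 also: cell viability assay measuring growth inhibition of human J-RT3-T3-5 cells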
Description: SANGER: Inhibition of human J-RT3-T3-5 cell growth in a cell viability assay.

697 = type: functional, cell-based
Description: SANGER: Inhibition of human 697 cell growth in a cell viability assay.

SNU1 = type: functional, cell-based;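 also: growth inhibition of human NCI-SNU-1 cells, measured with a cell viability assay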
Description: SANGER: Inhibition of human NCI-SNU-1 cell growth in a cell viability assay.

SNU-C2B = type: functional, cell-based;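 also: cell viability readout used to measure compound-driven suppression of SNU-C2B cell proliferation, IC50 marking half-maximal growth inhibition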
Description: SANGER: Inhibition of human SNU-C2B cell growth in a cell viability assay.

LS-513 = type: functional, cell-based
Description: SANGER: Inhibition of human LS-513 cell growth in a cell viability assay.

NCI-H1155 = type: functional, cell-based;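 also: cell growth inhibition measured by a viability assay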
Description: SANGER: Inhibition of human NCI-H1155 cell growth in a cell viability assay.

Ramos-2G6-4C10 = type: functional, cell-based;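 also: growth inhibition of the cell line, measured by a cell viability read-out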
Description: SANGER: Inhibition of human Ramos-2G6-4C10 cell growth in a cell viability assay.

SH-4 = type: functional, cell-based;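 also: growth inhibition of SH-4 cells, read out with a cell viability assay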
Description: SANGER: Inhibition of human SH-4 cell growth in a cell viability assay.

SK-MEL-2 = type: functional, cell-based;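 also: growth inhibition of human SK-MEL-2 cells measured with a cell viability assay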
Description: SANGER: Inhibition of human SK-MEL-2 cell growth in a cell viability assay.

RPMI-8226 = type: functional, cell-based
Description: SANGER: Inhibition of human RPMI-8226 cell growth in a cell viability assay.

GI-1 = type: functional, cell-based
Description: SANGER: Inhibition of human GI-1 cell growth in a cell viability assay.

EC-GI-10 = type: functional, cell-based
Description: SANGER: Inhibition of human EC-GI-10 cell growth in a cell viability assay.

LB1047-RCC = type: functional, cell-based;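 also: inhibition of cell growth, determined with a cell viability assay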
Description: SANGER: Inhibition of human LB1047-RCC cell growth in a cell viability assay.

OMC-1 = type: functional, cell-based;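 also: growth inhibition of the OMC-1 cell line, measured by a cell viability assay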
Description: SANGER: Inhibition of human OMC-1 cell growth in a cell viability assay.

HDLM-2 = type: functional, cell-based
Description: SANGER: Inhibition of human HDLM-2 cell growth in a cell viability assay.

Calu-6 = type: functional, cell-based
Description: SANGER: Inhibition of human Calu-6 cell growth in a cell viability assay.

RXF 393 = type: functional, cell-based
Description: SANGER: Inhibition of human RXF393 cell growth in a cell viability assay.

NCI-H1770 = type: functional, cell-based
Description: SANGER: Inhibition of human NCI-H1770 cell growth in a cell viability assay.

MOLT-16 = type: functional, cell-based
Description: SANGER: Inhibition of human MOLT-16 cell growth in a cell viability assay.

ES8 = type: functional, cell-based
Description: SANGER: Inhibition of human ES8 cell growth in a cell viability assay.

C8166 = type: functional, cell-based
Description: SANGER: Inhibition of human C8166 cell growth in a cell viability assay.

KY821 = type: functional, cell-based
Description: SANGER: Inhibition of human KY821 cell growth in a cell viability assay.

KU812 cell line = type: functional, cell-based
Description: SANGER: Inhibition of human KU812 cell growth in a cell viability assay.

**Q.** Which results are given for `C/C=C(/C)C(=O)O[C@H]1C(C)=C2[C@H]([C@@H]1OC(=O)CCCCCCC)[C@@](C)(OC(C)=O)C[C@H](OC(=O)CCC)[C@@]1(O)[C@H]2OC(=O)[C@@]1(C)O` [THAPSIGARGIN]?
**A.** IC50 (NCI-H1838): > 512 nM; IC50 (ETK-1): < 2 nM; IC50 (LB831-BLC): 3.94 nM; IC50 (HL-60): > 512 nM; IC50 (TK-10): 22.7 nM; IC50 (GAK): 199 nM; IC50 (KARPAS-299): 35.6 nM; IC50 (SBC-1): 48 nM; IC50 (LOX IMVI): 2.98 nM; IC50 (A704): 247 nM; IC50 (LAN-6): > 512 nM; IC50 (SHP77): 59.1 nM; IC50 (MHH-PREB-1): 12.6 nM; IC50 (no-11): 58.9 nM; IC50 (MN-60): 69.2 nM; IC50 (MZ1-PC): < 2 nM; IC50 (DMS-79): > 512 nM; IC50 (KG-1): 67.4 nM; IC50 (GOTO): 50.5 nM; IC50 (NCI-H69): 56.7 nM; IC50 (KS-1): 3.61 nM; IC50 (NCI-H1355): 5.48 nM; IC50 (OCUB-M): 0.597 nM; IC50 (SK-PN-DW): < 2 nM; IC50 (JAR): > 512 nM; IC50 (ES1): < 2 nM; IC50 (LU-134-A): 93.3 nM; IC50 (GR-ST): 10.5 nM; IC50 (NTERA-2-cl-D1): < 2 nM; IC50 (NCI-H1648): 1.44 nM; IC50 (NOMO-1): > 512 nM; IC50 (KNS-42): 16.9 nM; IC50 (JVM-2): > 512 nM; IC50 (SCH): > 512 nM; IC50 (KMOE-2): 82.9 nM; IC50 (IST-SL1): 24.2 nM; IC50 (GB-1): 114 nM; IC50 (MC116): < 2 nM; IC50 (ES5): > 512 nM; IC50 (HCC2218): 58.9 nM; IC50 (SW 954): 15.6 nM; IC50 (KLE): 70.2 nM; IC50 (EOL1): 24.2 nM; IC50 (J-RT3-T3-5): 141 nM; IC50 697: < 2 nM; IC50 (SNU1): 13.6 nM; IC50 (SNU-C2B): 12.4 nM; IC50 (LS-513): 154 nM; IC50 (NCI-H1155): 285 nM; IC50 (Ramos-2G6-4C10): 0.855 nM; IC50 (SH-4): 17.8 nM; IC50 (SK-MEL-2): < 2 nM; IC50 (RPMI-8226): 14.9 nM; IC50 (GI-1): 0.549 nM; IC50 (EC-GI-10): 355 nM; IC50 (LB1047-RCC): 7.05 nM; IC50 (OMC-1): 83 nM; IC50 (HDLM-2): 215 nM; IC50 (Calu-6): 4.79 nM; IC50 (RXF 393): > 512 nM; IC50 (NCI-H1770): 25.7 nM; IC50 (MOLT-16): 4.52 nM; IC50 (ES8): 18.1 nM; IC50 (C8166): 188 nM; IC50 (KY821): 0.636 nM; IC50 (KU812 cell line): 2.12 nM
